# What was measured:
# MDA-MB-435 = experiment: NCI-60 screening, one-dose (10 µM) and five-dose, SRB; assay type: cell-based
# SK-MEL-2 = experiment: as above; assay type: cell-based, human
# SK-MEL-28 = experiment: as above; assay type: cell-based, human
# UACC-62 = experiment: as above; assay type: cell-based
# OVCAR-3 = experiment: as above; assay type: cell-based
# OVCAR-4 = experiment: as above; assay type: cell-based, human
# OVCAR-8 = experiment: as above; assay type: cell-based, human
# SK-OV-3 = experiment: as above; assay type: cell-based, human
# ACHN = experiment: as above; assay type: cell-based, human
# CAKI-1 = experiment: as above; assay type: cell-based
# RXF 393 = experiment: as above; assay type: cell-based; conditions: Homo sapiens; 10 μM; RXF 393, Renal Cancer; read-out: Growth percentage
# TK-10 = experiment: as above; assay type: cell-based, human
# BT-549 = experiment: as above; assay type: cell-based
# T-47D = experiment: as above; assay type: cell-based, human; conditions: five-dose
# MDA-MB-468 = experiment: as above; assay type: cell-based, human; conditions: Homo sapiens
# From the text: Control cells Test cells FLD
# available usually at NCI library.
# An aliquot of frozen drug concentrate is […]
# [1] = test system: 60 human cancer cell lines; experiment: NCI-60 screening, full panel (mean growth, MID a, ranges over all lines)
# Procedure: The screening was performed in accordance with the protocols set forth by the Drug Evaluation Department of the National Cancer Institute (NCI), Bethesda, USA, for in vitro anticancer efficacy at a single concentration of 10 µM against a panel of 60 cancer cell lines derived from nine distinct organs (https://dctd.cancer.gov/data-tools-biospecimens/data (accessed on 15 March 2023 and 6 January 2024)) [37].
# The log10 GI50, log10 TGI, and log10 LC50 values were subsequently calculated as the averages of the log10 values of the respective individual GI50, TGI, and LC50 measurements. Negative numbers signified the most sensitive cell lines.
# One way to measure a compound’s selectivity is to divide its subpanel MID^b (in μM) by the MID^a (in μM), which is the average sensitivity of all cell lines to the test agent.
# At the National Cancer Institute (NCI) in Bethesda, USA, researchers examined the anticancer potential of the target compounds under investigation using nine panels of sixty different cell lines obtained from nine different cancers that were housed in the NCI library. Following the protocols laid out by the National Cancer Institute (https://dctd.cancer.gov/data-tools-biospecimens/data (accessed on 15 March 2023 and 6 January 2024)), the screening procedures were carried out [37]. The anticancer screening was carried out at a single dose of 10^−5 M; the results obtained were expressed as growth inhibition (%).
# The anti-cancer potential of the tested compounds was evaluated at the National cancer institute (NCI), Bethesda, USA, against 9 panels of 60 various cell lines derived from nine human tumours available usually at NCI library. The procedures for the screening were described in details in NCI website (dttp://www.dtp.nci.nih.gov.) and were done according to NCI protocols. The anticancer screening was carried out at single dose of 10^-5 M. The results obtained as growth inhibition (%).
# Cell lines were grown in Roswell Park Memorial Institute medium (RPMI) with 5% fetal bovine serum and 2% μM L-glutamine. Cancer cells are inoculated into 96 well microtiter plates in 100 μL at plating densities ranging from 5000 to 40,000 cells/well depending on the doubling time of individual cell lines. Then microtiter plates are incubated at 37 °C, 5% CO2, 95% air and 100% relative humidity for 24 h prior to the addition of the tested compounds. After 24 h, two plates of each cell line are fixed in situ with trichloroacetic acid (TCA). The tested compounds were dissolved in dimethyl sulfoxide (DMSO) and stored in the freezer prior to use. An aliquot of frozen drug concentrate is diluted to the desired concentration with complete medium containing 50 μg/mL gentamicin.
# [2] = Homo sapiens, five-dose, SK-MEL-2
# [3] = Homo sapiens, five-dose, SK-MEL-28
# [4] = Homo sapiens, five-dose, UACC-62
# [5] = Homo sapiens, five-dose, OVCAR-3
# [6] = Homo sapiens, five-dose, OVCAR-4
# [7] = Homo sapiens, five-dose, OVCAR-8
# [8] = Homo sapiens, five-dose, SK-OV-3
# [9] = Homo sapiens, five-dose, CAKI-1
# [10] = Homo sapiens, five-dose, BT-549
smiles,measurement,setting,value
"Cc1nc(SCC(=O)N2CCN(c3cc4c(cc3F)c(=O)c(C(=O)O)cn4C3CC3)CC2)sc1C(=O)/C=C/c1cccc(F)c1 [Compound 4d, (E)-1-Cyclopropyl-6-fluoro-7-(4-(2-((5-(3-(3-fluorophenyl)acryloyl)-4-methylthiazol-2-yl)thio)acetyl)piperazin-1-yl)-4-oxo-1,4-dihydroquinoline-3-carboxylic Acid]",activity at 10 µM,"MDA-MB-435; Homo sapiens, MDA-MB-435, read-out: Growth percentage, 10 μM, MDA-MB-435, Melanoma",-3.7%
same,CC50,"MDA-MB-435; Homo sapiens, five-dose, MDA-MB-435, read-out: LC50 (the source's name)",> 100 µM
same,TGI,"MDA-MB-435; five-dose, MDA-MB-435",100.0 µM
same,activity at 10 µM,"SK-MEL-2; Homo sapiens, 10 μM, SK-MEL-2, Melanoma, read-out: Growth percentage",-15.4%
same,GI50,SK-MEL-2; [2],> 100 µM
same,IC50,SK-MEL-2; [2],> 100 µM
same,CC50,"SK-MEL-2; Homo sapiens, five-dose, SK-MEL-2, read-out: LC50 (the source's name)",> 100 µM
same,TGI,"SK-MEL-2; five-dose, SK-MEL-2",100.0 µM
same,activity at 10 µM,"SK-MEL-28; Homo sapiens, 10 μM, SK-MEL-28, Melanoma, read-out: Growth percentage",77.5%
same,GI50,SK-MEL-28; [3],> 100 µM
same,IC50,SK-MEL-28; [3],> 100 µM
same,CC50,"SK-MEL-28; Homo sapiens, five-dose, SK-MEL-28, read-out: LC50 (the source's name)",> 100 µM
same,TGI,"SK-MEL-28; five-dose, SK-MEL-28",100.0 µM
same,activity at 10 µM,"UACC-62; Homo sapiens, 10 μM, UACC-62, Melanoma, read-out: Growth percentage",33.1%
same,GI50,UACC-62; [4],25.7 µM
same,IC50,UACC-62; [4],> 100 µM
same,CC50,"UACC-62; Homo sapiens, five-dose, UACC-62, read-out: LC50 (the source's name)",> 100 µM
same,TGI,"UACC-62; five-dose, UACC-62",100.0 µM
same,activity at 10 µM,"OVCAR-3; Homo sapiens, 10 μM, OVCAR-3, Ovarian Cancer, read-out: Growth percentage",-10.9%
same,GI50,OVCAR-3; [5],13.5 µM
same,IC50,OVCAR-3; [5],> 100 µM
same,CC50,"OVCAR-3; Homo sapiens, five-dose, OVCAR-3, read-out: LC50 (the source's name)",> 100 µM
same,TGI,"OVCAR-3; five-dose, OVCAR-3",100.0 µM
same,activity at 10 µM,"OVCAR-4; Homo sapiens, 10 μM, OVCAR-4, Ovarian Cancer, read-out: Growth percentage",94.5%
same,GI50,OVCAR-4; [6],> 100 µM
same,IC50,OVCAR-4; [6],> 100 µM
same,CC50,"OVCAR-4; Homo sapiens, five-dose, OVCAR-4, read-out: LC50 (the source's name)",> 100 µM
same,TGI,"OVCAR-4; five-dose, OVCAR-4",100.0 µM
same,activity at 10 µM,"OVCAR-8; Homo sapiens, 10 μM, OVCAR-8, Ovarian Cancer, read-out: Growth percentage",35.2%
same,GI50,OVCAR-8; [7],> 100 µM
same,IC50,OVCAR-8; [7],> 100 µM
same,CC50,"OVCAR-8; Homo sapiens, five-dose, OVCAR-8, read-out: LC50 (the source's name)",> 100 µM
same,TGI,"OVCAR-8; five-dose, OVCAR-8",100.0 µM
same,activity at 10 µM,"SK-OV-3; Homo sapiens, 10 μM, SK-OV-3, Ovarian Cancer, read-out: Growth percentage",5%
same,GI50,SK-OV-3; [8],> 100 µM
same,IC50,SK-OV-3; [8],> 100 µM
same,CC50,"SK-OV-3; Homo sapiens, five-dose, SK-OV-3, read-out: LC50 (the source's name)",> 100 µM
same,TGI,"SK-OV-3; five-dose, SK-OV-3",100.0 µM
same,activity at 10 µM,"ACHN; Homo sapiens, 10 μM, Renal Cancer, read-out: Growth percentage",94.4%
same,GI50,"ACHN; Homo sapiens, five-dose",> 100 µM
same,IC50,"ACHN; Homo sapiens, five-dose",> 100 µM
same,CC50,"ACHN; Homo sapiens, five-dose, read-out: LC50 (the source's name)",> 100 µM
same,TGI,ACHN; five-dose,100.0 µM
same,activity at 10 µM,"CAKI-1; Homo sapiens, 10 μM, CAKI-1, Renal Cancer, read-out: Growth percentage",79.8%
same,GI50,CAKI-1; [9],> 100 µM
same,IC50,CAKI-1; [9],> 100 µM
same,CC50,"CAKI-1; Homo sapiens, five-dose, CAKI-1, read-out: LC50 (the source's name)",> 100 µM
same,TGI,"CAKI-1; five-dose, CAKI-1",100.0 µM
same,activity at 10 µM,RXF 393,-25.9%
same,activity at 10 µM,"TK-10; Homo sapiens, 10 μM, TK-10, Renal Cancer, read-out: Growth percentage",97.5%
same,GI50,"TK-10; Homo sapiens, five-dose, TK-10",> 100 µM
same,IC50,"TK-10; Homo sapiens, five-dose, TK-10",> 100 µM
same,CC50,"TK-10; Homo sapiens, five-dose, TK-10, read-out: LC50 (the source's name)",> 100 µM
same,TGI,"TK-10; five-dose, TK-10",100.0 µM
same,activity at 10 µM,"BT-549; Homo sapiens, 10 μM, BT-549, Breast Cancer, read-out: Growth percentage",-88.5%
same,GI50,BT-549; [10],5.4 µM
same,IC50,BT-549; [10],25.7 µM
same,CC50,"BT-549; Homo sapiens, five-dose, BT-549, read-out: LC50 (the source's name)",> 100 µM
same,TGI,"BT-549; five-dose, BT-549",100.0 µM
same,GI50,"T-47D; Homo sapiens, T47D",> 100 µM
same,IC50,"T-47D; Homo sapiens, T47D",> 100 µM
same,CC50,"T-47D; Homo sapiens, T47D, read-out: LC50 (the source's name)",> 100 µM
same,TGI,T-47D,77.6 µM
same,activity at 10 µM,"MDA-MB-468; MDA-MB-468, 10 μM, MDA-MB-468, Breast Cancer, read-out: Growth percentage",-11.1%
same,GI50,"MDA-MB-468; five-dose, MDA-MB-468",4.1 µM
same,IC50,"MDA-MB-468; five-dose, MDA-MB-468",> 100 µM
same,CC50,"MDA-MB-468; five-dose, MDA-MB-468, read-out: LC50 (the source's name)",> 100 µM
same,CC50,"[1]; Homo sapiens, read-out: LC50",0.6 to 100 µM
same,activity at 10 µM,"[1]; Homo sapiens, read-out: Mean growth percentage",20.2%
same,Full-panel MG-MID,[1]; mean sensitivity across all cell lines in the panel,70.2 µM

# From article PMC12655637, “Design, Synthesis, and Mechanistic Study of Novel Ciprofloxacin/Thiazole Chalcone Hybrids as Potential Anticancer Agents” (Pharmaceuticals, 2025)
